Assay results: the supplement of paper PMC8149375

Experiments:
Settings in all cases: treatment: drug + dasatinib (fixed dose, not stated); 5 days
[1] = test system: SN12C; assay: AUC of dose-response viability curve, drug + dasatinib, normalised to DMSO (arbitrary (AUC of normalised viability)); higher = less growth inhibition
Protocol: (§1)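 Primary HTS combination arm: 8 RCC cell lines treated with 8 doses (up to 10 uM) of each library drug plus a fixed dose of dasatinib (dose not stated) for 5 days; viability read by CellTiter-Glo and normalised to DMSO. GI50 was fitted with XLfit, AUC is the area under the dose-response curve, and minimum viability is the lowest fraction of DMSO viability across doses.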

[2] = test system: UO-31; assay: as above
Protocol: as §1

[3] = test system: CAKI-1; assay: as above
Protocol: as §1

[4] = test system: TK-10; assay: as above
Protocol: as §1

[5] = test system: 769-P; assay: as above
Protocol: as §1

[6] = test system: ACHN; assay: as above
Protocol: as §1

[7] = test system: A498; assay: as above
Protocol: as §1

[8] = test system: 786-O; assay: as above
Protocol: as §1

[9] = test system: SN12C; assay: minimum viability across doses, drug + dasatinib, relative to DMSO (fraction); higher = less growth inhibition
Protocol: as §1

[10] = test system: UO-31; assay: as above
Protocol: as §1

[11] = test system: CAKI-1; assay: as above
Protocol: as §1

[12] = test system: TK-10; assay: as above
Protocol: as §1

[13] = test system: 769-P; assay: as above
Protocol: as §1

[14] = test system: ACHN; assay: as above
Protocol: as §1

[15] = test system: A498; assay: as above
Protocol: as §1

[16] = test system: 786-O; assay: as above
Protocol: as §1

[17] = test system: SN12C; assay: GI50 of drug in presence of dasatinib; higher = less potent
Protocol: as §1

[18] = test system: UO-31; assay: as above
Protocol: as §1

[19] = test system: CAKI-1; assay: as above
Protocol: as §1

[20] = test system: TK-10; assay: as above
Protocol: as §1

[21] = test system: 769-P; assay: as above
Protocol: as §1

[22] = test system: ACHN; assay: as above
Protocol: as §1

[23] = test system: A498; assay: as above
Protocol: as §1

[24] = test system: 786-O; assay: as above
Protocol: as §1

Row | Compound | AUC of dose-response viability curve [1] | AUC of dose-response viability curve [2] | AUC of dose-response viability curve [3] | AUC of dose-response viability curve [4] | AUC of dose-response viability curve [5] | AUC of dose-response viability curve [6] | AUC of dose-response viability curve [7] | AUC of dose-response viability curve [8] | minimum viability across doses [9] | minimum viability across doses [10] | minimum viability across doses [11] | minimum viability across doses [12] | minimum viability across doses [13] | minimum viability across doses [14] | minimum viability across doses [15] | minimum viability across doses [16] | GI50 of drug [17] | GI50 of drug [18] | GI50 of drug [19] | GI50 of drug [20] | GI50 of drug [21] | GI50 of drug [22] | GI50 of drug [23] | GI50 of drug [24]
1 | CN1CCN(CCOc2cc(OC3CCOCC3)c3c(Nc4c(Cl)ccc5c4OCO5)ncnc3c2)CC1 [Saracatinib (AZD0530)] + Cc1nc(Nc2ncc(C(=O)Nc3c(C)cccc3Cl)s2)cc(N2CCN(CCO)CC2)n1 [dasatinib] | 2.39 | 2.51 | 2.01 | 2.19 | 1.68 | 1.79 | 3.19 | 2.28 | 0.536 | 0.158 | 0.14 | 0.102 | 0.0614 | 0.192 | 0.616 | 0.333 | > 10 µM | 1.09 µM | 0.878 µM | 0.709 µM | 0.311 µM | 0.366 µM | > 10 µM | 2 µM
2 | Cc1cc(C)c(/C=C2\C(=O)Nc3ccccc32)[nH]1 [Semaxanib (SU5416)] + Cc1nc(Nc2ncc(C(=O)Nc3c(C)cccc3Cl)s2)cc(N2CCN(CCO)CC2)n1 [dasatinib] | 2.46 | 4.67 | 2.21 | 2.54 | 2.48 | 1.99 | 3.96 | 2.4 | 0.666 | 1.2 | 0.584 | 0.657 | 0.658 | 0.472 | 1.01 | 0.606 | > 10 µM | > 10 µM | > 10 µM | > 10 µM | > 10 µM | > 10 µM | > 10 µM | > 10 µM
3 | CNC(=O)c1cc(Oc2ccc(NC(=O)Nc3ccc(Cl)c(C(F)(F)F)c3)cc2)ccn1.Cc1ccc(S(=O)(=O)O)cc1 [Sorafenib (Nexavar)] + Cc1nc(Nc2ncc(C(=O)Nc3c(C)cccc3Cl)s2)cc(N2CCN(CCO)CC2)n1 [dasatinib] | 2.52 | 2.41 | 2.42 | 2.72 | 2.31 | 2.33 | 2.94 | 2.32 | 0.265 | 0.138 | 0.118 | 0.471 | 0.249 | 0.0615 | 0.245 | 0.174 | 5.96 µM | 1.53 µM | 4.81 µM | 9.08 µM | 3.77 µM | 3.17 µM | 7.05 µM | 2.2 µM
4 | CN1CCN(c2nc(C3=C(c4c[nH]c5ccccc45)C(=O)NC3=O)c3ccccc3n2)CC1 [Sotrastaurin (AEB071)] + Cc1nc(Nc2ncc(C(=O)Nc3c(C)cccc3Cl)s2)cc(N2CCN(CCO)CC2)n1 [dasatinib] | 2.45 | 4.79 | 2.44 | 2.84 | 2.3 | 2.04 | 3.6 | 3.14 | 0.661 | 1.16 | 0.555 | 0.663 | 0.673 | 0.536 | 0.904 | 0.674 | > 10 µM | > 10 µM | > 10 µM | > 10 µM | > 10 µM | > 10 µM | > 10 µM | > 10 µM
5 | CN[C@@H]1C[C@H]2O[C@@](C)([C@@H]1OC)n1c3ccccc3c3c4c(c5c6ccccc6n2c5c31)C(=O)NC4 [Staurosporine] + Cc1nc(Nc2ncc(C(=O)Nc3c(C)cccc3Cl)s2)cc(N2CCN(CCO)CC2)n1 [dasatinib] | 0.755 | 0.0461 | 0.0603 | 0.303 | 0.201 | 0.372 | 1.07 | 0.109 | 0.00331 | 0.0095 | 0.00221 | 0.0201 | 0.0048 | 0.00268 | 0.0115 | 0.00375 | 0.0104 µM | < 0.003 µM | < 0.003 µM | < 0.003 µM | < 0.003 µM | 0.0036 µM | 0.0323 µM | < 0.003 µM
6 | CCN(CC)CCNC(=O)c1c(C)[nH]c(/C=C2\C(=O)Nc3ccc(F)cc32)c1C.O=C(O)C[C@H](O)C(=O)O [Sunitinib Malate (Sutent)] + Cc1nc(Nc2ncc(C(=O)Nc3c(C)cccc3Cl)s2)cc(N2CCN(CCO)CC2)n1 [dasatinib] | 1.88 | 2.59 | 1.81 | 2.52 | 2.26 | 1.58 | 2.52 | 2.49 | 0.0218 | 0.0138 | 0.00649 | 0.221 | 0.0812 | 0.0769 | 0.167 | 0.0195 | 1.53 µM | 1.02 µM | 0.496 µM | 2.86 µM | 3.14 µM | 0.281 µM | 2.02 µM | 2.52 µM
7 | CCS(=O)(=O)c1cccc(-c2cc(C(=O)NC3CCN(C)CC3)c(C)c3[nH]c4ncc(C)cc4c23)c1 [TAK-901] + Cc1nc(Nc2ncc(C(=O)Nc3c(C)cccc3Cl)s2)cc(N2CCN(CCO)CC2)n1 [dasatinib] | 1.52 | 4.3 | 1.62 | 1.93 | 2.27 | 1.5 | 2.63 | 1.55 | 0.00509 | 0.287 | 0.0186 | 0.0604 | 0.344 | 0.0237 | 0.013 | 0.00567 | 0.347 µM | 8.85 µM | 0.318 µM | 0.607 µM | 4.01 µM | 0.235 µM | 0.588 µM | 0.171 µM
8 | Nc1nc(N)c2nc(-c3cccc(O)c3)c(-c3cccc(O)c3)nc2n1 [TG100-115] + Cc1nc(Nc2ncc(C(=O)Nc3c(C)cccc3Cl)s2)cc(N2CCN(CCO)CC2)n1 [dasatinib] | 2.52 | 3.95 | 2.12 | 2.71 | 2.32 | 2.04 | 3.23 | 2.76 | 0.637 | 1.03 | 0.308 | 0.739 | 0.463 | 0.368 | 0.882 | 0.681 | > 10 µM | > 10 µM | 3.15 µM | > 10 µM | 6.88 µM | 2.73 µM | > 10 µM | > 10 µM
9 | NC(=O)Nc1sc(-c2ccc(F)cc2)cc1C(N)=O [TPCA-1] + Cc1nc(Nc2ncc(C(=O)Nc3c(C)cccc3Cl)s2)cc(N2CCN(CCO)CC2)n1 [dasatinib] | 2.35 | 3.28 | 1.81 | 1.94 | 2.22 | 1.7 | 3.33 | 2.09 | 0.405 | 0.212 | 0.076 | 0.176 | 0.232 | 0.184 | 0.711 | 0.258 | > 10 µM | 3.72 µM | 0.458 µM | 0.848 µM | 2.18 µM | 0.346 µM | > 10 µM | 2.54 µM
10 | Cc1[nH]c(/C=C2\C(=O)Nc3ccccc32)c(C)c1CCC(=O)O [TSU-68] + Cc1nc(Nc2ncc(C(=O)Nc3c(C)cccc3Cl)s2)cc(N2CCN(CCO)CC2)n1 [dasatinib] | 2.32 | 1.95 | 2.29 | 2.77 | 2.42 | 1.94 | 3.61 | 2.39 | 0.609 | 1.07 | 0.595 | 0.74 | 0.66 | 0.512 | 0.699 | 0.61 | > 10 µM | > 10 µM | > 10 µM | > 10 µM | > 10 µM | > 10 µM | > 10 µM | > 10 µM
11 | CC(C)c1ccccc1Cc1cc(C(=O)Nc2ccc(S(=O)(=O)c3ccccc3C(C)(C)C)cc2)c(O)c(O)c1O [TW-37] + Cc1nc(Nc2ncc(C(=O)Nc3c(C)cccc3Cl)s2)cc(N2CCN(CCO)CC2)n1 [dasatinib] | 2.6 | 4.4 | 1.77 | 2.18 | 2.19 | 1.58 | 3.28 | 2.07 | 0.519 | 0.416 | 0.0425 | 0.325 | 0.0407 | 0.0767 | 0.773 | 0.124 | > 10 µM | 9.77 µM | 0.506 µM | 3.06 µM | 1.57 µM | 0.344 µM | > 10 µM | 1.21 µM
12 | Nc1cccc(-c2cc3c(Oc4cccc(O)c4)ncnc3[nH]2)c1 [TWS119] + Cc1nc(Nc2ncc(C(=O)Nc3c(C)cccc3Cl)s2)cc(N2CCN(CCO)CC2)n1 [dasatinib] | 2.33 | 3.25 | 2.11 | 2.34 | 1.93 | 1.62 | 3.56 | 2.39 | 0.25 | 0.0374 | 0.07 | 0.0898 | 0.0643 | 0.126 | 0.653 | 0.288 | 3.6 µM | 3.66 µM | 1.74 µM | 1.48 µM | 0.798 µM | 0.287 µM | > 10 µM | 3.57 µM
13 | COc1cc2c(N3CCN(C(=O)Nc4ccc(OC(C)C)cc4)CC3)ncnc2cc1OCCCN1CCCCC1 [Tandutinib (MLN518)] + Cc1nc(Nc2ncc(C(=O)Nc3c(C)cccc3Cl)s2)cc(N2CCN(CCO)CC2)n1 [dasatinib] | 2.45 | 3.35 | 2.35 | 2.83 | 2.45 | 2.15 | 2.96 | 2.67 | 0.644 | 0.527 | 0.384 | 0.647 | 0.555 | 0.387 | 0.705 | 0.523 | > 10 µM | > 10 µM | 4.78 µM | > 10 µM | > 10 µM | 3.27 µM | > 10 µM | > 10 µM
14 | CNC(=O)c1cc(COc2nnc(Nc3ccc(Cl)cc3)c3ccoc23)ccn1 [Telatinib (BAY 57-9352)] + Cc1nc(Nc2ncc(C(=O)Nc3c(C)cccc3Cl)s2)cc(N2CCN(CCO)CC2)n1 [dasatinib] | 2.51 | 4 | 2.19 | 2.45 | 2.25 | 2.22 | 3.74 | 2.23 | 0.673 | 0.989 | 0.188 | 0.334 | 0.355 | 0.474 | 0.784 | 0.0325 | > 10 µM | > 10 µM | 3.47 µM | 4.84 µM | 5.53 µM | 7.5 µM | > 10 µM | 4 µM
